Source: PMC10663540, “Structure-based discovery of dual pathway inhibitors for SARS-CoV-2 entry” (Nature Communications, 2023)
Several values for one entry are separate records, joined by “and”; a condition that tells them apart may be missing. Identical values can stand only once. Like-named read-outs stand apart in the source and are kept apart here.

Legend:
human CTSL = target: T1, human CTSL (Homo sapiens, UniProt P07711); assay: FRET enzymatic inhibition assay of CTSL (IC50 measurement); type: biochemical; conditions: substrate Cbz-Phe-Arg-AMC, pH 5.5; mean ± SD, four replicates
T1 construct: made in house
T1 sequence (P07711 114-333): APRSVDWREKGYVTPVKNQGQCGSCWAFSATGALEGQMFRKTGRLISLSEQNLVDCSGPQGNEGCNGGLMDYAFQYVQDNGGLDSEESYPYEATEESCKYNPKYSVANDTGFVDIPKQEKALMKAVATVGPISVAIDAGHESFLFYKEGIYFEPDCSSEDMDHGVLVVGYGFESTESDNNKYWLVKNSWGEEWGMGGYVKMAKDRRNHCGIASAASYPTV

human CTSB = target: T2, human CTSB (Homo sapiens, UniProt P07858); assay: biochemical
T2 construct: […]; made in house

[1] = test system: SARS-CoV-2-S pseudotyped virus Omicron BA.2; assay: microbe, parasite or virus in culture; type: cell-based
[2] = test system: SARS-CoV-2-S pseudotyped virus Omicron BA.2.12.1; assay: microbe, parasite or virus in culture; type: cell-based
[3] = test system: SARS-CoV-2-S pseudotyped virus Omicron BA.4/BA.5; assay: microbe, parasite or virus in culture; type: cell-based
Calu-3 cells = conditions: rep1-rep3
in vitro = conditions: human
[4] = Severe acute respiratory syndrome coronavirus 2, Huh-7, 120 h, 212-148 20 μM, Fig. 5d
[5] = Severe acute respiratory syndrome coronavirus 2, Huh-7, read-out: Antiviral efficacy EC50 (95% CI)

For `NC(N)=Nc1ccc(C(=O)OCCN2CCN(C(=O)N[C@@H](Cc3ccccc3)C(=O)N[C@H](/C=C/S(=O)(=O)c3ccccc3)CCc3ccccc3)CC2)cc1` [212-148], which IC50 (human CTSL) is on record?
Its IC50 is 2.13 nM.

What about the “Inhibition: CTSB” value (human CTSB; 212-148 0.12207 nM, Fig. 5c) of the same compound?
Its value is 8.76% and 9.57% and 12.06%.

And the inhibition at 0.00012207 µM (human CTSB; 212-148 0.12207 nM, Fig. 5c)?
The inhibition at 0.00012207 µM was 9.32%.

And the “Inhibition: CTSB” value (human CTSB; 212-148 0.976562 nM, Fig. 5c)?
The value was 5.21% and 6.50% and 2.50% and 12.34%.

And the “Inhibition: CTSB” value (human CTSB; 212-148 1.95312 nM, Fig. 5c)?
The value was 10.95% and 10.99% and 12.44%.

And the inhibition at 0.00195312 µM (human CTSB; 212-148 1.95312 nM, Fig. 5c)?
The inhibition at 0.00195312 µM was 20.7%.

And the “Inhibition: CTSB” value (human CTSB; 212-148 7.8125 nM, Fig. 5c)?
The value was 6.62% and 15.92% and 9.45% and 14.93%.

What about the “Inhibition: CTSB” value (human CTSB; 212-148 15.625 nM, Fig. 5c) of the same compound?
The value was 29.27% and 18.56% and 15.75%.

What about the inhibition at 0.015625 µM (human CTSB; 212-148 15.625 nM, Fig. 5c) of the same compound?
The inhibition at 0.015625 µM was 20.2%.

And the “Inhibition: CTSB” value (human CTSB; 212-148 31.25 nM, Fig. 5c)?
Its value is 38.89% and 26.87% and 33.63%.

What about the inhibition at 0.03125 µM (human CTSB; 212-148 31.25 nM, Fig. 5c) of the same compound?
Its inhibition at 0.03125 µM is 31.5%.

What about the “Inhibition: CTSB” value (human CTSB; 212-148 62.5 nM, Fig. 5c) of the same compound?
Its value is 49.58% and 58.40% and 54.67%.

And the inhibition at 0.0625 µM (human CTSB; 212-148 62.5 nM, Fig. 5c)?
Its inhibition at 0.0625 µM is 52.1%.

And the “Inhibition: CTSB” value (human CTSB; 212-148 125 nM, Fig. 5c)?
Its value is 77.49% and 76.59% and 75.86%.

What about the inhibition at 0.125 µM (human CTSB; 212-148 125 nM, Fig. 5c) of the same compound?
The inhibition at 0.125 µM was 76.8%.

And the “Inhibition: CTSB” value (human CTSB; 212-148 250 nM, Fig. 5c)?
The value was 92.13% and 95.19% and 101.10%.

What about the inhibition at 0.25 µM (human CTSB; 212-148 250 nM, Fig. 5c) of the same compound?
The inhibition at 0.25 µM was 95.4%.

And the “Inhibition: CTSB” value (human CTSB; 212-148 500 nM, Fig. 5c)?
The value was 95.97% and 101.09% and 103.70%.

What about the inhibition at 0.5 µM (human CTSB; 212-148 500 nM, Fig. 5c) of the same compound?
The inhibition at 0.5 µM was 101%.

What about the “Inhibition: CTSB” value (human CTSB; 212-148 1000 nM, Fig. 5c) of the same compound?
The value was 100.47% and 101.20% and 101.53%.

And the inhibition at 1 µM (human CTSB; 212-148 1000 nM, Fig. 5c)?
The inhibition at 1 µM was 98.8%.

And the “Inhibition: CTSB” value (human CTSB; 212-148 2000 nM, Fig. 5c)?
Its value is 98.63% and 99.08% and 103.05%.

What about the inhibition at 2 µM (human CTSB; 212-148 2000 nM, Fig. 5c) of the same compound?
Its inhibition at 2 µM is 102%.

And the IC50 (human CTSB; substrate Cbz-Phe-Arg-AMC, pH 5.5, mean ± SD, four replicates)?
The IC50 was 64.1 nM.

What about the “Inhibition: BA.2/Huh-7” value ([1]; 212-148 0.00128 μM, Fig. 5d) of the same compound?
Its value is 25.89% and 19.49%.

And the “Inhibition: BA.2/Huh-7” value ([1]; 212-148 0.8 μM, Fig. 5d)?
Its value is 91.14% and 94.17%.

What about the “Inhibition: BA.2/Huh-7” value ([1]; 212-148 4 μM, Fig. 5d) of the same compound?
Its value is 97.31% and 97.73%.

What about the “Inhibition: BA.2/Huh-7” value ([1]; 212-148 20 μM, Fig. 5d) of the same compound?
Its value is 84.53% and 89.27%.

And the inhibition at 0.00128 µM ([1]; Severe acute respiratory syndrome coronavirus 2, Huh-7, 120 h, 212-148 0.00128 μM, Fig. 5d)?
The inhibition at 0.00128 µM was 38.3%.

And the inhibition at 0.8 µM ([1]; Severe acute respiratory syndrome coronavirus 2, Huh-7, 120 h, 212-148 0.8 μM, Fig. 5d)?
Its inhibition at 0.8 µM is 99.7%.

And the inhibition at 4 µM ([1]; Severe acute respiratory syndrome coronavirus 2, Huh-7, 120 h, 212-148 4 μM, Fig. 5d)?
Its inhibition at 4 µM is 83.7%.

What about the inhibition at 20 µM [1, 4] of the same compound?
Its inhibition at 20 µM is 97.9%.

And the EC50 [1, 5]?
Its EC50 is 5.7 nM.

What about the “Inhibition: BA.2.12.1/Huh-7” value ([2]; 212-148 0.0002 μM, Fig. 5d) of the same compound?
The value was 25.45% and 41.55%.

And the “Inhibition: BA.2.12.1/Huh-7” value ([2]; 212-148 0.002 μM, Fig. 5d)?
The value was 72.96% and 74.23%.

And the “Inhibition: BA.2.12.1/Huh-7” value ([2]; 212-148 0.02 μM, Fig. 5d)?
Its value is 77.85% and 80.42%.

What about the “Inhibition: BA.2.12.1/Huh-7” value ([2]; 212-148 0.2 μM, Fig. 5d) of the same compound?
Its value is 82.33% and 85.32%.

And the “Inhibition: BA.2.12.1/Huh-7” value ([2]; 212-148 2 μM, Fig. 5d)?
Its value is 85.90% and 86.81%.

What about the “Inhibition: BA.2.12.1/Huh-7” value ([2]; 212-148 20 μM, Fig. 5d) of the same compound?
Its value is 92.77% and 92.47%.

And the inhibition at 0.0002 µM ([2]; Severe acute respiratory syndrome coronavirus 2, Huh-7, 120 h, 212-148 0.0002 μM, Fig. 5d)?
Its inhibition at 0.0002 µM is 26.2%.

And the inhibition at 0.002 µM ([2]; Severe acute respiratory syndrome coronavirus 2, Huh-7, 120 h, 212-148 0.002 μM, Fig. 5d)?
The inhibition at 0.002 µM was 70.2%.

What about the inhibition at 0.02 µM ([2]; Severe acute respiratory syndrome coronavirus 2, Huh-7, 120 h, 212-148 0.02 μM, Fig. 5d) of the same compound?
The inhibition at 0.02 µM was 75.2%.

What about the inhibition at 0.2 µM ([2]; Severe acute respiratory syndrome coronavirus 2, Huh-7, 120 h, 212-148 0.2 μM, Fig. 5d) of the same compound?
The inhibition at 0.2 µM was 82.3%.

What about the inhibition at 2 µM ([2]; Severe acute respiratory syndrome coronavirus 2, Huh-7, 120 h, 212-148 2 μM, Fig. 5d) of the same compound?
The inhibition at 2 µM was 86.3%.

And the inhibition at 20 µM [2, 4]?
Its inhibition at 20 µM is 91.6%.

What about the EC50 [2, 5] of the same compound?
The EC50 was 0.4 nM.

What about the “Inhibition: BA.4.5/Huh-7” value ([3]; 212-148 2e-5 μM, Fig. 5d) of the same compound?
Its value is 20.50% and 13.32% and 20.61%.

What about the “Inhibition: BA.4.5/Huh-7” value ([3]; 212-148 0.0002 μM, Fig. 5d) of the same compound?
Its value is 32.55% and 30.98%.

What about the “Inhibition: BA.4.5/Huh-7” value ([3]; 212-148 0.002 μM, Fig. 5d) of the same compound?
Its value is 62.17% and 52.89%.

And the “Inhibition: BA.4.5/Huh-7” value ([3]; 212-148 0.02 μM, Fig. 5d)?
Its value is 82.60% and 83.49%.

What about the “Inhibition: BA.4.5/Huh-7” value ([3]; 212-148 0.2 μM, Fig. 5d) of the same compound?
The value was 89.43% and 91.48%.

And the “Inhibition: BA.4.5/Huh-7” value ([3]; 212-148 2 μM, Fig. 5d)?
Its value is 89.92% and 91.92%.

And the “Inhibition: BA.4.5/Huh-7” value ([3]; 212-148 20 μM, Fig. 5d)?
The value was 95.01% and 96.39%.

What about the inhibition at 0.0002 µM ([3]; Severe acute respiratory syndrome coronavirus 2, Huh-7, 120 h, 212-148 0.0002 μM, Fig. 5d, read-out: Inhibition: BA.4.5/Huh-7) of the same compound?
Its inhibition at 0.0002 µM is 43.8%.

And the inhibition at 0.002 µM ([3]; Severe acute respiratory syndrome coronavirus 2, Huh-7, 120 h, 212-148 0.002 μM, Fig. 5d, read-out: Inhibition: BA.4.5/Huh-7)?
Its inhibition at 0.002 µM is 63.5%.

What about the inhibition at 0.02 µM ([3]; Severe acute respiratory syndrome coronavirus 2, Huh-7, 120 h, 212-148 0.02 μM, Fig. 5d, read-out: Inhibition: BA.4.5/Huh-7) of the same compound?
The inhibition at 0.02 µM was 84.4%.

What about the inhibition at 0.2 µM ([3]; Severe acute respiratory syndrome coronavirus 2, Huh-7, 120 h, 212-148 0.2 μM, Fig. 5d, read-out: Inhibition: BA.4.5/Huh-7) of the same compound?
Its inhibition at 0.2 µM is 86.9%.

And the inhibition at 2 µM ([3]; Severe acute respiratory syndrome coronavirus 2, Huh-7, 120 h, 212-148 2 μM, Fig. 5d, read-out: Inhibition: BA.4.5/Huh-7)?
Its inhibition at 2 µM is 86.8%.

And the inhibition at 20 µM ([3]; Severe acute respiratory syndrome coronavirus 2, Huh-7, 120 h, 212-148 20 μM, Fig. 5d, read-out: Inhibition: BA.4.5/Huh-7)?
The inhibition at 20 µM was 92.5%.

And the EC50 [3, 5]?
The EC50 was 0.4 nM.

And the Cytotoxicity (Calu-3 cells; 0.15 μM)?
The Cytotoxicity was 2.30% and 2.49% and 2.76%.

What about the Cytotoxicity (Calu-3 cells; 0.46 μM) of the same compound?
The Cytotoxicity was 5.33% and 5.48% and 5.69%.

What about the Cytotoxicity (Calu-3 cells; 4.1 μM) of the same compound?
The Cytotoxicity was -1.17% and -0.96% and -0.67%.

And the Cytotoxicity (Calu-3 cells; 12.3 μM)?
The Cytotoxicity was 0.51% and 0.76% and 1.02%.

What about the Cytotoxicity (Calu-3 cells; 111.1 μM) of the same compound?
The Cytotoxicity was -1.18% and -0.95% and -0.65%.

And the Cytotoxicity (Calu-3 cells; 333.3 μM)?
Its Cytotoxicity is 32.20% and 32.35% and 32.61%.

What about the Cytotoxicity (Calu-3 cells; 1000 μM) of the same compound?
The Cytotoxicity was 84.78% and 84.85% and 84.92%.

What about the “content remaining (LC-MS)” value (after two days in the medium that contains FBS, 125 μM) of the same compound?
The value was “more than 50%”.

What about the “stability compared (in words)” value (same conditions as cell assay media) of the same compound?
The value was “more stable than nafamostat”.

What about the CC50 (in vitro) of the same compound?
Its CC50 is 347000 nM.
